Reference: paper PMC9516332 (Frontiers in Oncology, 2022)
Where two headings read alike, the source gives them in different places.

Test system: 134 cancer cell lines
Experiment: Cell viability assay (ATPlite, 72 hours), IC50 on cancer cell line panel

Q: How did the IC50 (HEC-6, read-out: IC50 in cell proliferation assay) turn out when `CCN1C(=O)N(c2c(F)c(OC)cc(OC)c2F)Cc2cnc3[nH]c(CN4CCOCC4)cc3c21` [pemigatinib] was run?
A: 2490 nM

Q: And the IC50 (Homo sapiens, 769-P, read-out: IC50 in cell proliferation assay)?
A: 2530 nM

Q: What about the IC50 (Homo sapiens, 786-0, read-out: IC50 in cell proliferation assay) of the same compound?
A: 2710 nM

Q: What about the IC50 (Homo sapiens, A 172, read-out: IC50 in cell proliferation assay) of the same compound?
A: 29 nM

Q: And the IC50 (Homo sapiens, A204, read-out: IC50 in cell proliferation assay)?
A: 29 nM

Q: And the IC50 (Homo sapiens, A498, read-out: IC50 in cell proliferation assay)?
A: 1130 nM

Q: And the IC50 (Homo sapiens, A549, read-out: IC50 in cell proliferation assay)?
A: 4020 nM

Q: And the IC50 (Homo sapiens, A704, read-out: IC50 in cell proliferation assay)?
A: 1280 nM

Q: And the IC50 (Homo sapiens, A-375, read-out: IC50 in cell proliferation assay)?
A: 3030 nM

Q: What about the IC50 (Homo sapiens, A-427, read-out: IC50 in cell proliferation assay) of the same compound?
A: 1.43 nM

Q: What about the IC50 (Homo sapiens, ACHN, read-out: IC50 in cell proliferation assay) of the same compound?
A: 989 nM

Q: What about the IC50 (Homo sapiens, AN3-CA, read-out: IC50 in cell proliferation assay) of the same compound?
A: 22 nM

Q: What about the IC50 (Homo sapiens, ASPC1, read-out: IC50 in cell proliferation assay) of the same compound?
A: 3160 nM

Q: What about the IC50 (Homo sapiens, AU565, read-out: IC50 in cell proliferation assay) of the same compound?
A: 3260 nM

Q: What about the IC50 (Homo sapiens, BT-20, read-out: IC50 in cell proliferation assay) of the same compound?
A: 2840 nM

Q: What about the IC50 (Homo sapiens, BT-474, read-out: IC50 in cell proliferation assay) of the same compound?
A: > 31600 nM

Q: What about the IC50 (Homo sapiens, BT-549, read-out: IC50 in cell proliferation assay) of the same compound?
A: 17 nM

Q: And the IC50 (Homo sapiens, BXPC-3, read-out: IC50 in cell proliferation assay)?
A: 1200 nM

Q: And the IC50 (Homo sapiens, C-33-A, read-out: IC50 in cell proliferation assay)?
A: 2710 nM

Q: And the IC50 (Homo sapiens, CAL-27, read-out: IC50 in cell proliferation assay)?
A: 2650 nM

Q: What about the IC50 (Homo sapiens, CCF-STTG1, read-out: IC50 in cell proliferation assay) of the same compound?
A: > 31600 nM

Q: What about the IC50 (Homo sapiens, CCRF-CEM, read-out: IC50 in cell proliferation assay) of the same compound?
A: 3600 nM

Q: What about the IC50 (Homo sapiens, COLO 205, read-out: IC50 in cell proliferation assay) of the same compound?
A: 2980 nM

Q: And the IC50 (Homo sapiens, COLO-829, read-out: IC50 in cell proliferation assay)?
A: 3230 nM

Q: And the IC50 (Homo sapiens, DLD-1, read-out: IC50 in cell proliferation assay)?
A: 2270 nM

Q: What about the IC50 (Homo sapiens, DU-145, read-out: IC50 in cell proliferation assay) of the same compound?
A: 1600 nM

Q: What about the IC50 (Homo sapiens, DU-4475, read-out: IC50 in cell proliferation assay) of the same compound?
A: 5830 nM

Q: And the IC50 (Homo sapiens, Daoy, read-out: IC50 in cell proliferation assay)?
A: 1400 nM

Q: And the IC50 (Homo sapiens, DoTc2-4510, read-out: IC50 in cell proliferation assay)?
A: 3190 nM

Q: What about the IC50 (Homo sapiens, EOL1, read-out: IC50 in cell proliferation assay) of the same compound?
A: 1110 nM

Q: What about the IC50 (Homo sapiens, FaDu, read-out: IC50 in cell proliferation assay) of the same compound?
A: 2600 nM

Q: And the IC50 (Homo sapiens, G-361, read-out: IC50 in cell proliferation assay)?
A: 2570 nM

Q: And the IC50 (Homo sapiens, HCC827, read-out: IC50 in cell proliferation assay)?
A: 3200 nM

Q: And the IC50 (Homo sapiens, HCC4006, read-out: IC50 in cell proliferation assay)?
A: 2620 nM

Q: And the IC50 (Homo sapiens, HCT-15, read-out: IC50 in cell proliferation assay)?
A: 2820 nM

Q: What about the IC50 (Homo sapiens, HCT-116, read-out: IC50 in cell proliferation assay) of the same compound?
A: 2400 nM

Q: And the IC50 (Homo sapiens, HEC-1, read-out: IC50 in cell proliferation assay)?
A: 2370 nM

Q: And the IC50 (Homo sapiens, HEC-1B, read-out: IC50 in cell proliferation assay)?
A: 2740 nM

Q: What about the IC50 (Homo sapiens, HL-60, read-out: IC50 in cell proliferation assay) of the same compound?
A: 2450 nM

Q: What about the IC50 (Homo sapiens, HT, read-out: IC50 in cell proliferation assay) of the same compound?
A: > 31600 nM

Q: And the IC50 (Homo sapiens, HT-1080, read-out: IC50 in cell proliferation assay)?
A: 1060 nM

Q: And the IC50 (Homo sapiens, Hs746T, read-out: IC50 in cell proliferation assay)?
A: 1840 nM

Q: What about the IC50 (Homo sapiens, Hs-578T, read-out: IC50 in cell proliferation assay) of the same compound?
A: 3780 nM

Q: And the IC50 (Homo sapiens, HuTu80, read-out: IC50 in cell proliferation assay)?
A: 3.58 nM

Q: What about the IC50 (Homo sapiens, J82, read-out: IC50 in cell proliferation assay) of the same compound?
A: 1130 nM

Q: What about the IC50 (Homo sapiens, Jurkat E6.1, read-out: IC50 in cell proliferation assay) of the same compound?
A: 2890 nM

Q: What about the IC50 (Homo sapiens, K562, read-out: IC50 in cell proliferation assay) of the same compound?
A: 3770 nM

Q: And the IC50 (Homo sapiens, KATO III, read-out: IC50 in cell proliferation assay)?
A: 1.77 nM

Q: And the IC50 (Homo sapiens, KG-1, read-out: IC50 in cell proliferation assay)?
A: 1.08 nM

Q: What about the IC50 (Homo sapiens, KLE, read-out: IC50 in cell proliferation assay) of the same compound?
A: 1820 nM

Q: What about the IC50 (Homo sapiens, KMS-11, read-out: IC50 in cell proliferation assay) of the same compound?
A: 16 nM

Q: What about the IC50 (Homo sapiens, KU812, read-out: IC50 in cell proliferation assay) of the same compound?
A: 4660 nM

Q: And the IC50 (Homo sapiens, Kasumi 1, read-out: IC50 in cell proliferation assay)?
A: 1290 nM

Q: And the IC50 (Homo sapiens, LC-2-ad, read-out: IC50 in cell proliferation assay)?
A: 3280 nM

Q: And the IC50 (Homo sapiens, LNCaP-Clone-FGC, read-out: IC50 in cell proliferation assay)?
A: 3090 nM

Q: What about the IC50 (Homo sapiens, LS174T, read-out: IC50 in cell proliferation assay) of the same compound?
A: 3690 nM

Q: What about the IC50 (Homo sapiens, LS-411N, read-out: IC50 in cell proliferation assay) of the same compound?
A: 5900 nM

Q: And the IC50 (Homo sapiens, LoVo, read-out: IC50 in cell proliferation assay)?
A: 2700 nM
